Experimental data as given in patent publication US20220323471A1 (priority 2019, published 2022).
pIC50: −log10 of the molar value. Where two headings read alike, the source gives them in different places.

Assays:
[1] = tested on: endosomes and lysosomes of HT1080 cells; assay: Acridine Orange fluorescence, endosomal/lysosomal acidification; format: cell-based, human; conditions: 4 hours pre-incubation, DGP, diphyllin, 6DG 2, 1 or 0.1 μM, Bafilomycin 100 nM, NH4Cl 25 mM
Procedure: To determine whether DGP inhibited ZIKV infection by preventing the acidification of endosomes and lysosomes, Acridine Orange (AO) was used, a cell-permeable fluorescent dye marker that accumulates in low pH compartments such as endosomes and lysosomes.
HT1080 cells were pre-incubated for 4 hours with the Bafilomycin (FIG. 10A, 100 nM), NH4Cl (FIG. 10A, 25 mM), DGP (FIG. 10B: 2 μM, 1 μM, or 0.1 μM) diphyllin (FIG. 10C: 2 μM, 1 μM, or 0.1 μM), or 6DG (FIG. 10C: 2 μM, 1 μM, or 0.1 μM) to test whether DGP prevents endosomal/lysosomal acidification. After staining the cells with 1 μg/mL of AO, changes in fluorescence were measured using a Celesta flow cytometer on the PerCP-Cy5-5-A channel. A shift in the AO fluorescence is indicated with an arrow in FIGS. 10A-10D.
Acridine Orange (Invitrogen) staining was performed as described previously (Kanzawa, T. et al. 2004, “Role of autophagy in temozolomide-induced cytotoxicity for malignant glioma cells.” Cell Death Differ 11(4): 448-457). Cells were stained with 1 μg/mL AO in 10% FBS DMEM for 30 min at 37° C. and then collected by trypsinization. Changes in fluorescence were measured using a Celesta flow cytometer in the PerCP-Cy5-5-A channel.

DENV1-RVP = format: cell-based, dengue virus; conditions: VERO cells; DGP 1 μM; NH4Cl 20 mM
TBEV-RVP = format: cell-based, tick-borne encephalitis virus
WNV-RVP = format: cell-based, West Nile virus; conditions: VERO cells; DGP 1 μM; NH4Cl 20 mM
JEV-RVP = format: cell-based, Japanese encephalitis virus; conditions: VERO cells; DGP 1 μM; NH4Cl 20 mM
EBV RVP = format: cell-based, Ebola virus
Sendai Virus (SeV) = assay: Sendai Virus infection and IFN-β production in CHME3 cells; format: cell-based; conditions: SeV MOI 1 and 10, DGP 1 μM, NH4Cl 20 mM
Procedure: The Flaviviridae family of viruses encode a glycoprotein that is necessary to achieve fusion at the endosomal/lysosomal membranes, the step that releases viral components into the cytoplasm. […] Instead, SeV fuses at the plasma membrane. To this end, IFN-β production and viral infection were measured in CHME3 cells infected with SeV at an MOI 1 and 10 in the presence of DGP (1 μM) or 20 mM NH4Cl.
To detect viral copies of ZIKV and Sendai Virus (SeV) by qRT-PCR, cells were seeded in 24-well plates, with or without DGP treatment, and infected with the virus at the indicated MOI for 48 h. After the incubation period, total RNA from HT1080, VERO, and CHME3 cells was isolated and purified using Trizol (Invitrogen). For detection of ZIKV viral load in brain and spleen, 3 mice were sacrificed at 6 days post-infection and total RNA was extracted from the brain and spleen. For cDNA synthesis, 1 ng of total RNA was reverse transcribed. The reaction mixture included 1 mM of deoxyribonucleotide phosphates (dNTPs), 2 nM of the specific reverse primer of ZIKV or SeV, 1× M-MULV buffer, 10 U M-MuLV RT (BioLabs), and 2 U of RNase Inhibitor. The reaction mixture was incubated for 1 hour at 42° C. followed by 20 min at 65° C. to inactivate the enzyme. For actin detection, Oligo-dT was used to reverse transcribe total RNA.
ZIKV RNA levels were measured using real-time PCR. HT1080 and VERO cells were challenged by ZIKV MR766 at an MOI of 1 in the presence of DGP. At 48 hours post-challenge, cells were lysed and total RNA was extracted using trizol. Total RNA was used to determine the levels of ZIKV RNA by real-time PCR using specific primers against ZIKA. qRT-PCR was carried out using SYBR green in a 20-μl final volume using a MASTERCYCLER proS machine. The primers used to detect ZIKV were: SEQ ID NO. 1: 5′-TT […]-3′-Forward (Genome Position 941-964) and SEQ ID NO. 2: 5′-[…]-3′-Reverse (Genome position 1123-1103) (AY632535.2). For the detection of SeV, the following primers were used: SEQ ID NO. 3: 5′-[…]-3′-Forward (Genome position 210-233) and SEQ ID NO. 4: 5′-[…]-3′-Reverse (Genome position 332-307) (M30202. Genome position 210-332) (Wagner, A. M. et al. 2003, “Detection of sendai virus and pneumonia virus of mice by use of fluorogenic nuclease reverse transcriptase polymerase chain reaction analysis.” Comp Med 53(2): 173-177). For the detection of IFN-β the following primers were used: SEQ ID NO. 5: Forward 5-[…]-3′ (Genome position 644-668) and SEQ ID Na 6: Reverse 5′-[…]-3′ (Genome position 718-697) (NM_002176.2) and for actin detection: SEQ ID NO. 7: 5′-[…]-′3-Forward and SEQ ID NO. 8: 5′-[…]′3-Reverse. ZIKA viral RNA levels were normalized to actin (upper panels). […]

ZIKV strain MR766 = ZIKV strain MR766 infection, 4G2 antibody flow cytometry; conditions: for pIC50: Zika virus
ZIKV = conditions: cited from earlier work
[2] = tested on: HT1080, CHME3, VERO cells; assay: MTT cell viability assay; format: cell-based, human and monkey; conditions: human or monkey cells (HT1080, CHME3, VERO); 48 hours
Procedure: Cell viability was determined by measuring the reduction of the tetrazolium dye MTT [3-(4,5-dimethylthiazol-2-yl)-2,5-diphenyltetrazolium bromide] to its insoluble form formazan. We treated 4×10^3 cells/well in a 96-well plate with serial dilutions of the indicated drugs. Human and monkey cells were incubated with DGP, diphyllin, or 6-deoxy-D-glucose for 48 hours at 37° C. After the incubation period, 10 μl MTT solution (5 mg/mL) was added to each well for an additional 4 hours at 37° C. Finally, the media was removed and dimethyl sulfoxide was added (200 μl/well) according to the manufacturer's instructions. The optical density was measured at 570 nm using a microplate reader. Experiments were performed in triplicates and standard deviations are shown. Mock-treated cells represent 100% viability.

C[C@@H](O)[C@@H](O)[C@H](O)[C@@H](O)C=O [Formula 6DG, 6-deoxyglucose, reference compound]
acidification of endosomes and lysosomes (AO fluorescence) [1]: did not prevent

Cl.N [NH4Cl, ammonium chloride, reference compound]
DENV1 RVP infection (DENV1-RVP): inhibited infection | TBEV RVP infection (TBEV-RVP): inhibited infection | WNV RVP infection (WNV-RVP): inhibited infection | JEV RVP infection (JEV-RVP): inhibited infection | EBV RVP infection (EBV RVP): inhibited infection | IFN-β production in SeV-infected cells (Sendai Virus (SeV)): increased induction | SeV infection / viral replication (Sendai Virus (SeV)): increased viral replication | acidification of endosomes and lysosomes (AO fluorescence) [1]: prevent endosomal and lysosomal acidification | percentage of 4G2-positive cells (ZIKV strain MR766; CHME3 cells, MOI 1, DGP 0.1 and 1 μM, NH4Cl 20 mM, 48 hours): substantial decrease

CCN(CC)CCCC(C)Nc1ccnc2cc(Cl)ccc12 (stereo not shown) [chloroquine]
required inhibitory concentrations for ZIKV in cell culture (ZIKV): micromolar range

COc1cc2c(O)c3c(c(-c4ccc5c(c4)OCO5)c2cc1OC)C(=O)OC3 [diphyllin, Diphyllin]
toxicity at concentrations required to inhibit ZIKV infection (MTT) [2]: not toxic | acidification of endosomes and lysosomes (AO fluorescence) [1]: prevented the acidification of endosomes and lysosomes but to a lesser extent | pIC50 (ZIKV strain MR766; HT-1080, read-out: IC50, ZIKV infection): 7.22 | pIC50 (ZIKV strain MR766; read-out: IC50, ZIKV infection): 6.68

CCN(CCO)CCCC(C)Nc1ccnc2cc(Cl)ccc12 (stereo not shown) [hydroxychloroquine]
required inhibitory concentrations for ZIKV in cell culture (ZIKV): micromolar range
